Reference: patent publication US5460697A, “Method of pulping wood chips with a fungi using sulfite salt-treated wood chips” (priority 1994, dated 1995)

Key:
[1] = system: indigenous microorganisms; experiment: Contaminants level of sodium bisulfite-soaked aspen chips (plating before inoculation and at harvest); type: cell-based, endogenous microorganisms of aspen wood chips; conditions: for contaminants level at harvest (in words): fungus-treated chips with sodium bisulfite
Protocol: (§1) Three batches of aspen wood chips were prepared, each batch containing 1800 g dry weight of chips. One batch was soaked in 18 kg of water containing no sodium bisulfite. A second batch was soaked in 18 kg of water containing 28.125 g of sodium bisulfite. A third batch was soaked in 18 kg of water containing 56.250 g of sodium bisulfite. After the chips had soaked, we performed our experiments on 1600 g of chips (dry weight basis). The soaking was done at room temperature for about 1 hour. After soaking, water or sodium bisulfite solution was drained through a mesh. Based on the amount of water or sodium bisulfite solution absorbed by the chips, we calculated that 1600 g dry weight of chips retained about 600 or 1200 μg/ml of sodium bisulfite. Thus, there were three treatments: 1) chips without sodium bisulfite (water only), 2) chips containing 600 μg/ml of sodium bisulfite, and 3) chips containing 1200 μg/ml of sodium bisulfite.
Bioreactors containing soaked chips were left at room temperature for 48 h. U.S. Pat. No. 5,055,159 describes a suitable bioreactor. (U.S. Pat. No. 5,055,159 is hereby incorporated by reference.) Prior to inoculation, chips were pulled out from these bioreactors and plated on potato dextrose and tryptic soya agar plates to measure the contaminants level. These plates were incubated at 27° C. and 65% relative humidity for 24 h.
At harvest, fungus-treated chips with and without sodium bisulfite soaking were plated on potato dextrose and tryptic soya agar plates to determine the contaminants level. These plates were incubated at 27° C. and 65% relative humidity for 72 h. […] High level of sodium bisulfite (1200 μg/ml) caused only 1.7% wood loss, saved 18.4% of electrical energy, improved tear index by 15%, and fiber length by 26% as compared to the control.
We repeated the experiment described above with a four-week incubation. Four batches of aspen wood chips were prepared, each batch containing 3600 g dry weight of chips. One batch was soaked in 36 kg of water containing no sodium bisulfite. Second, third and fourth batches each were soaked in 36 kg of water containing 112.50 g of sodium bisulfite at room temperature for about 1 hour. After soaking, water or sodium bisulfite solution was drained through a mesh. Based on the amount of water or sodium bisulfite solution soaked, we calculated that each batch of 1600 g dry weight of chips retained about 1300 μg/ml of sodium bisulfite. Bioreactors containing soaked chips were left at room temperature for 48 h. The following eight treatments were made:
Prior to inoculation, chips were pulled out from the bioreactors and plated on potato dextrose and tryptic soya agar plates to determine the contaminants level. These plates were incubated at 27° C. and 65% relative humidity for 24 h. […]

C. subvermispora = experiment: Growth of C. subvermispora on sodium bisulfite-treated chips; type: cell-based; conditions: for growth of C. subvermispora at harvest (in words): fungus-treated chips with sodium bisulfite
Protocol: To prepare a liquid inoculum of C. subvermispora, potato dextrose broth (43.20 g) and yeast extract (13.08 g) were added to 1800 ml of distilled water and mixed well. 300 ml of this medium was poured into six 2800-ml flasks. Each flask was autoclaved for 20 min. at 121° C. After cooling to room temperature, each flask was inoculated with 30 plugs cut into 13-mm diameter plugs from a 10-day old fungal culture on a potato dextrose agar plate. The flasks were then incubated at 27° C. at 65% relative humidity for 10-15 days. Prior to use, the flasks containing the fungal biomass were decanted and washed with sterile distilled water to remove excess medium from the fungus. The fungal biomass was then placed in distilled water and blended in a Waring blender (VWR scientific) twice for 15 seconds each time at high speed, following which distilled water was added to the suspension to make the total volume 500 ml. About 100 grams of this suspension (2.61 g dry weight) was added to each bioreactor containing about 1600 grams of aspen chips measured on a dry weight basis prepared as described below. The blended mycelium was dumped onto the chips and mixed.
as §1, with “After soaking, water or sodium bisulfite solution was drained through a mesh.” left out, “Thus, there were three treatments: 1) chips without sodium bisulfite (water only), 2) chips containing 600 μg/ml of sodium bisulfite, and 3) chips containing 1200 μg/ml of sodium bisulfite.” left out
We repeated the experiment described above with a four-week incubation. […] Based on the amount of water or sodium bisulfite solution soaked, we calculated that each batch of 1600 g dry weight of chips retained about 1300 μg/ml of sodium bisulfite. […]

[2] = system: Phanerochaete chrysosporium BKM-F-1767; experiment: Effect of sodium bisulfite on radial growth and mycelial dry weight of P. chrysosporium; type: cell-based
Protocol: (§2) 2% agar was added to the medium. The medium was autoclaved for 15 min. and the medium was poured into petri dishes. These plates were then inoculated with a plug cut into 8-mm diameter plugs from a petri dish containing a 5-day-old culture of P. chrysosporium or a petri dish containing a 10-day-old culture of another white-rot fungi. P. chrysosporium-inoculated plates were incubated at 39° C. Plates inoculated with other fungi were incubated at 27° C.

C. subvennispora CZ-3 = experiment: Effect of sodium bisulfite on radial growth of white-rot fungi; type: cell-based, C. subvermispora; conditions: 500 μg/ml
Protocol: as §2

[3] = system: C. subvennispora FP-104027-T; experiment: as above; type: cell-based, C. subvermispora; conditions: 500 μg/ml
Protocol: as §2

[4] = system: C. subvennispora FP-105752-sp; experiment: as above; type: cell-based, C. subvermispora; conditions: 500 μg/ml
Protocol: as §2

[5] = system: C. subvennispora FP-90031-sp; experiment: as above; type: cell-based, C. subvermispora; conditions: 500 μg/ml
Protocol: as §2

[6] = system: C. subvennispora L-14807-sp; experiment: as above; type: cell-based, C. subvermispora; conditions: 500 μg/ml
Protocol: as §2

[7] = system: C. subvennispora L-15225-sp; experiment: as above; type: cell-based, C. subvermispora; conditions: 500 μg/ml
Protocol: as §2

[8] = system: C. subvennispora L-6133-sp; experiment: as above; type: cell-based, C. subvermispora; conditions: 500 μg/ml
Protocol: as §2

white-rot fungi = experiment: Effect of sodium bisulfite on radial growth of white-rot fungi (summary); type: cell-based, white-rot fungi listed in Table 7; conditions: 500 μg/ml, 72 and 96 h
Protocol: as §2

`O=S([O-])O.[Na+]` [Sodium Bisulfite] was tested, and the “endogenous microorganisms on chips (in words)” value ([1]; 1200 μg/ml, prior to inoculation, 48 h after soaking, 2-week experiment) was “no endogenous microorganisms”, the “inhibition of microorganisms prior to inoculation (in words)” value ([1]; 1300 μg/ml, 4-week experiment) was “completely inhibited microorganisms” and the “contaminants level at harvest (in words)” value ([1]; 2 weeks) was “almost no contamination”. The “contaminants level at harvest (in words)” value ([1]; 4 weeks) was “almost no contamination”, the “growth of C. subvermispora at harvest (in words)” value (C. subvermispora; 2 weeks) was “heavy growth of C. subvermispora” and the “growth of C. subvermispora at harvest (in words)” value (C. subvermispora; 4 weeks) was “heavy growth of C. subvermispora”. The “growth of white-rot fungi such as C. subvermispora (in words)” value (C. subvermispora; treatment of wood chips, summary) was “promoted the growth of white-rot fungi”, the “Mycelial Dry Weight 36 ± SD” value ([2]; 100 μg/ml) was 21 ± 3 mg and the “Radial Growth 24 h ± SD” value ([2]; 100 μg/ml) was 4.30 ± .26 cm. For the same compound, the “Radial Growth 36h ± SD” value ([2]; 100 μg/ml) was 7.52 ± .27 cm, the “Mycelial Dry Weight 36 ± SD” value ([2]; 250 μg/ml) was 39 ± 8 mg and the “Radial Growth 24 h ± SD” value ([2]; 250 μg/ml) was 5.16 ± .28 cm. For the same compound, the “Radial Growth 36h ± SD” value ([2]; 250 μg/ml) was 8.62 ± .20 cm, the “Mycelial Dry Weight 36 ± SD” value ([2]; 500 μg/ml) was 36 ± 6 mg and the “Radial Growth 24 h ± SD” value ([2]; 500 μg/ml) was 5.07 ± .25 cm. For the same compound, the “Radial Growth 36h ± SD” value ([2]; 500 μg/ml) was 8.68 ± .09 cm, the “Mycelial Dry Weight 36 ± SD” value ([2]; 1000 μg/ml) was 10 ± 2 mg and the “Radial Growth 24 h ± SD” value ([2]; 1000 μg/ml) was 1.15 ± .22 cm. For the same compound, the “Radial Growth 36h ± SD” value ([2]; 1000 μg/ml) was 2.88 ± .42 cm, the “dry weight of the fungus (in words)” value ([2]; 250 or 500 μg/ml) was “increased” and the “radial growth (in words)” value ([2]; 250 or 500 μg/ml, 24 and 36 h) was “increased the radial growth of P. chrysosporium”. The “growth of white-rot fungi such as P. chrysosporium (in words)” value ([2]; summary statement) was “promoted the growth of white-rot fungi”, the “Radial growth 72h ± SD” value (C. subvennispora CZ-3; 72 h) was 2.37 ± .12 cm and the “Radial growth 96h ± SD” value (C. subvennispora CZ-3; 96 h) was 4.37 ± .15 cm. For the same compound, the “Radial growth 72h ± SD” value ([3]; 72 h) was 3.63 ± .23 cm, the “Radial growth 96h ± SD” value ([3]; 96 h) was 6.07 ± .46 cm and the “Radial growth 72h ± SD” value ([4]; 72 h) was 2.13 ± .06 cm. For the same compound, the “Radial growth 96h ± SD” value ([4]; 96 h) was 4.00 ± 00 cm, the “Radial growth 72h ± SD” value ([5]; 72 h) was 3.20 ± .20 cm and the “Radial growth 96h ± SD” value ([5]; 96 h) was 5.77 ± .31 cm. The “Radial growth 72h ± SD” value ([6]; 72 h) was 2.60 ± .30 cm, the “Radial growth 96h ± SD” value ([6]; 96 h) was 5.07 ± .31 cm and the “Radial growth 72h ± SD” value ([7]; 72 h) was 1.63 ± .40 cm. The “Radial growth 96h ± SD” value ([7]; 96 h) was 4.20 ± .72 cm, the “Radial growth 72h ± SD” value ([8]; 72 h) was 2.37 ± .25 cm and the “Radial growth 96h ± SD” value ([8]; 96 h) was 4.80 ± .20 cm. For the same compound, the “radial growth (in words)” value (white-rot fungi) was “increased the radial growth”.
